smiles,measurement,value
"CC1CCN(c2c(-c3cc([N+](=O)[O-])ccc3Cl)c(Cl)nc3ncnn23)CC1 [compound 56, 5-chloro-6-(2-chloro-5-nitrophenyl)-7-(4-methylpiperidin-1-yl)-[1,2,4]-triazolo[1,5-a]pyrimidine]",melting point,199 to 204 °C

# From patent US20070249634A1, “Triazolopyrimidine Compounds and Use Thereof for Controlling Harmful Fungi” (priority 2004, published 2007)
